Test results: EP0497314A1, “Use of azapirones in attention deficit hyperactivity disorder” (Bristol-Myers Squibb Company, priority 1991, dated 1992)
Where a name gives a salt, the structure may show the parent alone. Marks after values point to notes of the source that are not given here.

How the values were obtained:
[1] = test system: fronto-occipital cortex of the cat; assay: Quantitative EEG, fronto-occipital cat cortex, subcutaneous administration; assay type: in vivo, cats; conditions: for group percent change in electrical energy from pre-drug control, Δ band / mean change ± S.E. in electrical energy from pre-drug control, Δ band / group percent change in electrical energy from pre-drug control, α band / mean change ± S.E. in electrical energy from pre-drug control, α band / group percent change in electrical energy from pre-drug control, β band / mean change ± S.E. in electrical energy from pre-drug control, β band / group percent change in electrical energy from pre-drug control, γ band / mean change ± S.E. in electrical energy from pre-drug control, γ band / group percent change in electrical energy from pre-drug control, θ band / mean change ± S.E. in electrical energy from pre-drug control, θ band: fronto-occipital cat cortex; for group percent change in electrical energy from pre-drug control, Δ band / mean change ± S.E. in electrical energy from pre-drug control, Δ band: Δ = 0.05-35 Hz; for group percent change in electrical energy from pre-drug control, α band / mean change ± S.E. in electrical energy from pre-drug control, α band: α= 7-13 Hz; for group percent change in electrical energy from pre-drug control, β band / mean change ± S.E. in electrical energy from pre-drug control, β band: β= 13-25 Hz; for group percent change in electrical energy from pre-drug control, γ band / mean change ± S.E. in electrical energy from pre-drug control, γ band: γ= 25-40 Hz; for group percent change in electrical energy from pre-drug control, θ band / mean change ± S.E. in electrical energy from pre-drug control, θ band: θ= 3.5-7.0 Hz
Description: This unique combination of activity may render buspirone useful in the treatment of childhood hyperkinesis which has been reported to respond to both selected phenothiazine and stimulant drugs. • (b) Adult mongrel female cats weighing 2.5-4.0 kg were implanted with EEG recording electrodes. Recording sites were as follows: fronto-occipital cortex, basal amygdala and ventral hippocampus.
Animals were individually held in canvas feline restraining bags for EEG recording. The EEG of each brain area was recorded on a separate channel. The instrumentation filtered each channel of EEG and analog data into five distinct frequency bands: Δ=0.5-3.5 Hz, ϑ=3.5-7.0 Hz, α=7-13 Hz, β=13-25 Hz and γ=25-40 Hz. The EEG analyzer then integrated the filtered waveforms and sent pulses to an associated computer at a rate proportional to the electrical energy of each band. Data collecting procedures were essentially the same as reported in Example 1. However, groups of six animals each were used and all drugs were administered subcutaneously in saline solution as their respective salts, but all dosages were calculated as the free base. Recording was started 30 minutes after injection to insure adequate drug absorption for peak activity.
Drug-induced EEG changes were determined by comparing the post-treatment data to the pre-treatment control in the same animal. Statistical analysis was performed on change from control, in instrument counts, using multiple Student-t-paired-comparison test with P≦0.05 (Table 2). However, for clarity data are also presented as percent change from control (Figures 3, 4 and 5).
The data in Table 2 are drug-induced changes resulting from the minimum and higher doses of each compound required to elicit the EEG profile characteristic of that particular drug.

[2] = test system: rabbit cortex; assay: Quantitative EEG, rabbit cortex, intravenous administration; assay type: in vivo, rabbits; conditions: for group percent change in electrical energy from pre-drug control, Δ band / mean change ± S.E. in electrical energy from pre-drug control, Δ band / group percent change in electrical energy from pre-drug control, α band / mean change ± S.E. in electrical energy from pre-drug control, α band / group percent change in electrical energy from pre-drug control, β band / mean change ± S.E. in electrical energy from pre-drug control, β band / group percent change in electrical energy from pre-drug control, γ band / mean change ± S.E. in electrical energy from pre-drug control, γ band / group percent change in electrical energy from pre-drug control, θ band / mean change ± S.E. in electrical energy from pre-drug control, θ band: rabbit cortex; for group percent change in electrical energy from pre-drug control, Δ band / mean change ± S.E. in electrical energy from pre-drug control, Δ band: Δ = 0.5-3.5 Hz; for group percent change in electrical energy from pre-drug control, α band / mean change ± S.E. in electrical energy from pre-drug control, α band: α= 7-13 Hz; for group percent change in electrical energy from pre-drug control, β band / mean change ± S.E. in electrical energy from pre-drug control, β band: β= 13-25 Hz; for group percent change in electrical energy from pre-drug control, γ band / mean change ± S.E. in electrical energy from pre-drug control, γ band: γ= 25-40 Hz; for group percent change in electrical energy from pre-drug control, θ band / mean change ± S.E. in electrical energy from pre-drug control, θ band: θ= 3.5-7.0 Hz
Procedure: At least 2 weeks were allowed for recovery before beginning experimentation.
Groups of four animals each were individually restrained and connected to an EEG amplifier and frequency analyzer. The EEG of each animal was recorded on a separate channel. The instrumentation filtered each channel of EEG analog data into five distinct frequency bands: Δ=0.5-3.5 Hz, ϑ=3.5-7.0 Hz, α=7-13 Hz, β=13-25 Hz and γ=25-40 Hz. The EEG analyzer then integrated the filtered waveforms and sent pulses to an associated computer at a rate proportional to the electrical energy of each band. Thus, one computer print-out provided a cortical EEG profile for the entire group of four rabbits.
Data from a one-hour recording period were collected in four 15-minute periods, which provided additional information concerning both onset and time of peak effect of drug activity. However, in this report only the mean activity of the four data collection periods was considered since onset of drug activity was immediate and duration of action was at least one hour for all drugs studied. Drug-induced EEG changes were determined by comparing the post-treatment print-out to the pretreatment control in the same animal and statistical analysis was performed on change from control, in counts, using multiple Student-t paired-comparison tests with p≦0.05 (Table 1). However, for clarity data are also presented as percent change from control (Figures 1 and 2).
All drugs were administered intravenously in saline solution as their respective salts and all dosage calculations were based on the free base. Recording was started immediately after injection and animals were not used more often than once per week. Initial doses were reduced geometrically until a no-effect dose was determined for each drug. However, only the "no-effect" data and the data generated from the next higher dose are presented in this report since the shape of the EEG profile is not dose-related, as opposed to the magnitude of the response which is dose-related.

In the case of COC(=O)C(c1ccccc1)C1CCCCN1 (stereo not drawn) [Methylphenidate HCl, methylphenidate], the minimal effective dose ([1]; Felis catus, sc, read-out: the minimum dose required to produce the EEG profile characteristic of that particular drug) is reported as 0.25 mg/kg, the “relative potency by comparing minimal doses required to elicit EEG profiles” value ([1]; cat cortex EEG, s.c.) is reported as “equal potency” and the the no-effect dose ([1]; fronto-occipital cat cortex EEG, dose of free base) is reported as 0.125† mg/kg, s.c. The “group percent change in electrical energy from pre-drug control, Δ band” value (“group percent change … Δ band” for short) ([1]; 0.125 mg/kg free base s.c.) was -22%, the “mean change ± S.E. in electrical energy from pre-drug control, Δ band” value (“mean change ± S.E. in electrical energy … Δ band” for short) ([1]; 0.125 mg/kg free base s.c.) was -44 ± 18 instrument counts and the “group percent change … Δ band” value ([1]; 0.25 mg/kg free base s.c.) was -14%. For the same molecule, the “mean change ± S.E. in electrical energy … Δ band” value ([1]; 0.25 mg/kg free base s.c.) was -31 ± 18 instrument counts, the “group percent change … Δ band” value ([1]; 1.0 mg/kg free base s.c.) was -2% and the “mean change ± S.E. in electrical energy … Δ band” value ([1]; 1.0 mg/kg free base s.c.) was -4 ± 30 instrument counts. The “group percent change … Δ band” value ([1]; 4.0 mg/kg free base s.c.) was -8%, the “mean change ± S.E. in electrical energy … Δ band” value ([1]; 4.0 mg/kg free base s.c.) was -16 ± 45 instrument counts and the “group percent change in electrical energy from pre-drug control, α band” value (“group percent change … α band” for short) ([1]; 0.125 mg/kg free base s.c.) was -18%. The “mean change ± S.E. in electrical energy from pre-drug control, α band” value (“mean change ± S.E. in electrical energy … α band” for short) ([1]; 0.125 mg/kg free base s.c.) was -24 ± 10 instrument counts, the “group percent change … α band” value ([1]; 0.25 mg/kg free base s.c.) was -31% and the “mean change ± S.E. in electrical energy … α band” value ([1]; 0.25 mg/kg free base s.c.) was -39 ± 12 instrument counts. For the same molecule, the “group percent change … α band” value ([1]; 1.0 mg/kg free base s.c.) was -46%, the “mean change ± S.E. in electrical energy … α band” value ([1]; 1.0 mg/kg free base s.c.) was -52 ± 14 instrument counts and the “group percent change … α band” value ([1]; 4.0 mg/kg free base s.c.) was -51%. The “mean change ± S.E. in electrical energy … α band” value ([1]; 4.0 mg/kg free base s.c.) was -63 ± 11 instrument counts, the “group percent change in electrical energy from pre-drug control, β band” value (“group percent change … β band” for short) ([1]; 0.125 mg/kg free base s.c.) was -2% and the “mean change ± S.E. in electrical energy from pre-drug control, β band” value (“mean change ± S.E. in electrical energy … β band” for short) ([1]; 0.125 mg/kg free base s.c.) was -3 ± 5 instrument counts. For the same molecule, the “group percent change … β band” value ([1]; 0.25 mg/kg free base s.c.) was -9%, the “mean change ± S.E. in electrical energy … β band” value ([1]; 0.25 mg/kg free base s.c.) was -11 ± 4 instrument counts and the “group percent change … β band” value ([1]; 1.0 mg/kg free base s.c.) was -19%. The “mean change ± S.E. in electrical energy … β band” value ([1]; 1.0 mg/kg free base s.c.) was -20 ± 5 instrument counts, the “group percent change … β band” value ([1]; 4.0 mg/kg free base s.c.) was -12% and the “mean change ± S.E. in electrical energy … β band” value ([1]; 4.0 mg/kg free base s.c.) was -14 ± 4 instrument counts. For the same molecule, the “group percent change in electrical energy from pre-drug control, γ band” value (“group percent change … γ band” for short) ([1]; 0.125 mg/kg free base s.c.) was “+7%”, the “mean change ± S.E. in electrical energy from pre-drug control, γ band” value (“mean change ± S.E. in electrical energy … γ band” for short) ([1]; 0.125 mg/kg free base s.c.) was “+6 ± 2 instrument counts” and the “group percent change … γ band” value ([1]; 0.25 mg/kg free base s.c.) was “+9%”. The “mean change ± S.E. in electrical energy … γ band” value ([1]; 0.25 mg/kg free base s.c.) was “+7 ± 2 instrument counts”, the “group percent change … γ band” value ([1]; 1.0 mg/kg free base s.c.) was “+13%” and the “mean change ± S.E. in electrical energy … γ band” value ([1]; 1.0 mg/kg free base s.c.) was “+10 ± 3 instrument counts”. The “group percent change … γ band” value ([1]; 4.0 mg/kg free base s.c.) was “+35%”, the “mean change ± S.E. in electrical energy … γ band” value ([1]; 4.0 mg/kg free base s.c.) was “+25 ± 5 instrument counts” and the “group percent change in electrical energy from pre-drug control, θ band” value (“group percent change … θ band” for short) ([1]; 0.125 mg/kg free base s.c.) was -20%. For the same molecule, the “mean change ± S.E. in electrical energy from pre-drug control, θ band” value (“mean change ± S.E. in electrical energy … θ band” for short) ([1]; 0.125 mg/kg free base s.c.) was -31 ± 11 instrument counts, the “group percent change … θ band” value ([1]; 0.25 mg/kg free base s.c.) was -27% and the “mean change ± S.E. in electrical energy … θ band” value ([1]; 0.25 mg/kg free base s.c.) was -38 ± 16 instrument counts. For the same molecule, the “group percent change … θ band” value ([1]; 1.0 mg/kg free base s.c.) was -34%, the “mean change ± S.E. in electrical energy … θ band” value ([1]; 1.0 mg/kg free base s.c.) was -45 ± 17 instrument counts and the “group percent change … θ band” value ([1]; 4.0 mg/kg free base s.c.) was -41%. For the same molecule, the “mean change ± S.E. in electrical energy … θ band” value ([1]; 4.0 mg/kg free base s.c.) was -56 ± 14 instrument counts, the minimal effective dose ([2]; Oryctolagus cuniculus, iv, read-out: the minimum dose required to produce the EEG profile characteristic of that particular drug) was 0.125 mg/kg and the “relative potency by comparing minimal doses required to elicit EEG profiles” value ([2]; rabbit cortex EEG, i.v.) was “approximately four times more potent than buspirone”. For the same molecule, the the no-effect dose ([2]; rabbit cortex EEG, dose of free base) was 0.0625† mg/kg, i.v, the “group percent change … Δ band” value ([2]; 0.0625 mg/kg free base i.v.) was “+3%” and the “mean change ± S.E. in electrical energy … Δ band” value ([2]; 0.0625 mg/kg free base i.v.) was “+7 ± 19 instrument counts”. For the same molecule, the “group percent change … Δ band” value ([2]; 0.125 mg/kg free base i.v.) was -36%, the “mean change ± S.E. in electrical energy … Δ band” value ([2]; 0.125 mg/kg free base i.v.) was -120 ± 36 instrument counts and the “group percent change … α band” value ([2]; 0.0625 mg/kg free base i.v.) was “+6%”. The “mean change ± S.E. in electrical energy … α band” value ([2]; 0.0625 mg/kg free base i.v.) was “+8 ± 10 instrument counts”, the “group percent change … α band” value ([2]; 0.125 mg/kg free base i.v.) was -23% and the “mean change ± S.E. in electrical energy … α band” value ([2]; 0.125 mg/kg free base i.v.) was -47 ± 16 instrument counts. For the same molecule, the “group percent change … β band” value ([2]; 0.0625 mg/kg free base i.v.) was “+4%”, the “mean change ± S.E. in electrical energy … β band” value ([2]; 0.0625 mg/kg free base i.v.) was “+4 ± 6 instrument counts” and the “group percent change … β band” value ([2]; 0.125 mg/kg free base i.v.) was -22%. For the same molecule, the “mean change ± S.E. in electrical energy … β band” value ([2]; 0.125 mg/kg free base i.v.) was -35 ± 6 instrument counts, the “group percent change … γ band” value ([2]; 0.0625 mg/kg free base i.v.) was -1% and the “mean change ± S.E. in electrical energy … γ band” value ([2]; 0.0625 mg/kg free base i.v.) was -1 ± 2 instrument counts. The “group percent change … γ band” value ([2]; 0.125 mg/kg free base i.v.) was -7%, the “mean change ± S.E. in electrical energy … γ band” value ([2]; 0.125 mg/kg free base i.v.) was -9 ± 2 instrument counts and the “group percent change … θ band” value ([2]; 0.0625 mg/kg free base i.v.) was “+6%”. The “mean change ± S.E. in electrical energy … θ band” value ([2]; 0.0625 mg/kg free base i.v.) was “+3 ± 9 instrument counts”, the “group percent change … θ band” value ([2]; 0.125 mg/kg free base i.v.) was -24% and the “mean change ± S.E. in electrical energy … θ band” value ([2]; 0.125 mg/kg free base i.v.) was -60 ± 16 instrument counts.
